Assay results taken from ChEMBL document CHEMBL3885881, “DrugMatrix”.

Organism: Rattus norvegicus
Experiment: DrugMatrix - Regimen: Daily Repeat
Format: toxicity, organism-based, Sprague-Dawley
Set-up: regimen Daily Repeat, gender Male, age 6-8 weeks
Details: in vivo, po, route oral GAVAGE, vehicle .5 % CMC; for ABSOLUTE BASOPHIL / ABSOLUTE EOSINOPHIL / ABSOLUTE LYMPHOCYTE / ABSOLUTE MONOCYTE / ABSOLUTE SEGMENTED NEUTROPHIL / BASOPHIL / EOSINOPHIL / ERYTHROCYTE COUNT / HEMATOCRIT / HEMOGLOBIN / LEUKOCYTE COUNT / LYMPHOCYTE / MEAN CORPUSCULAR HEMOGLOBIN / MEAN CORPUSCULAR HEMOGLOBIN CONCENTRATION / MEAN CORPUSCULAR VOLUME / MONOCYTE / NEUTROPHIL / NUCLEATED RED BLOOD CELLS / PLATELET COUNT: tissue Blood; for ALANINE AMINOTRANSFERASE / ALBUMIN / ALKALINE PHOSPHATASE / ASPARTATE AMINOTRANSFERASE / BLOOD UREA NITROGEN / CARBON DIOXIDE / CHLORIDE / CHOLESTEROL / CREATINE PHOSPHOKINASE / CREATININE / GLUCOSE / LACTATE DEHYDROGENASE / LIPASE / PHOSPHORUS / POTASSIUM / SODIUM / TOTAL BILIRUBIN / TOTAL PROTEIN / URIC ACID: tissue Plasma
[1] = 100 mg/kg, 72 h, dose level Low, time 3 day
[2] = 100 mg/kg, 120 h, dose level Low, time 5 day
[3] = 2000 mg/kg, 72 h, dose level High, time 3 day
[4] = 2000 mg/kg, 120 h, dose level High, time 5 day

With `C#C[C@]1(O)CC[C@H]2[C@@H]3CCC4=Cc5oncc5C[C@]4(C)[C@H]3CC[C@@]21C` [DANAZOL] the “ABSOLUTE BASOPHIL” value [1] was 0 CELLS/uL, the “ABSOLUTE EOSINOPHIL” value [1] was 39 CELLS/uL and the “ABSOLUTE LYMPHOCYTE” value [1] was 10714 CELLS/uL. The “ABSOLUTE MONOCYTE” value [1] was 124 CELLS/uL, the “ABSOLUTE SEGMENTED NEUTROPHIL” value [1] was 1823 CELLS/uL and the BASOPHIL [1] was 0%. The EOSINOPHIL [1] was 0.33%, the “ERYTHROCYTE COUNT” value [1] was 5.54 x10E6/uL and the HEMATOCRIT [1] was 34.17%. The HEMOGLOBIN [1] was 13.43 G/DL, the “LEUKOCYTE COUNT” value [1] was 12.7 x10E3/uL and the LYMPHOCYTE [1] was 84.33%. For the same compound, the “MEAN CORPUSCULAR HEMOGLOBIN” value [1] was 24.3 pg, the “MEAN CORPUSCULAR HEMOGLOBIN CONCENTRATION” value [1] was 39.3 G/DL and the “MEAN CORPUSCULAR VOLUME” value [1] was 61.77 fL. For the same compound, the MONOCYTE [1] was 1%, the NEUTROPHIL [1] was 14.33% and the “NUCLEATED RED BLOOD CELLS” value [1] was 0 /100WBC. For the same compound, the “PLATELET COUNT” value [1] was 1192.67 x10E3/uL, the “ALANINE AMINOTRANSFERASE” value [1] was 44.33 u/L and the ALBUMIN [1] was 4.17 G/DL. The “ALKALINE PHOSPHATASE” value [1] was 377 u/L, the “ASPARTATE AMINOTRANSFERASE” value [1] was 76.33 u/L and the “BLOOD UREA NITROGEN” value [1] was 14.67 mg/dL. For the same compound, the “CARBON DIOXIDE” value [1] was 25.33 mmol/L, the CHLORIDE [1] was 102 MEQ/L and the CHOLESTEROL [1] was 55 mg/dL. The “CREATINE PHOSPHOKINASE” value [1] was 401.33 u/L, the CREATININE [1] was 0.17 mg/dL and the GLUCOSE [1] was 163.33 mg/dL. The “LACTATE DEHYDROGENASE” value [1] was 137 u/L, the LIPASE [1] was 10 u/L and the PHOSPHORUS [1] was 12.07 mg/dL. For the same compound, the POTASSIUM [1] was 6.65 MEQ/L, the SODIUM [1] was 143.7 MEQ/L and the “TOTAL BILIRUBIN” value [1] was 0.2 mg/dL. The “TOTAL PROTEIN” value [1] was 5.97 G/DL, the “URIC ACID” value [1] was 1.73 mg/dL and the “ABSOLUTE BASOPHIL” value [2] was 0 CELLS/uL. For the same compound, the “ABSOLUTE EOSINOPHIL” value [2] was 63 CELLS/uL, the “ABSOLUTE LYMPHOCYTE” value [2] was 13104.67 CELLS/uL and the “ABSOLUTE MONOCYTE” value [2] was 130.33 CELLS/uL. For the same compound, the “ABSOLUTE SEGMENTED NEUTROPHIL” value [2] was 1568.67 CELLS/uL, the BASOPHIL [2] was 0% and the EOSINOPHIL [2] was 0.33%. The “ERYTHROCYTE COUNT” value [2] was 5.51 x10E6/uL, the HEMATOCRIT [2] was 33.67% and the HEMOGLOBIN [2] was 13.33 G/DL. For the same compound, the “LEUKOCYTE COUNT” value [2] was 14.87 x10E3/uL, the LYMPHOCYTE [2] was 88% and the “MEAN CORPUSCULAR HEMOGLOBIN” value [2] was 24.2 pg. For the same compound, the “MEAN CORPUSCULAR HEMOGLOBIN CONCENTRATION” value [2] was 39.57 G/DL, the “MEAN CORPUSCULAR VOLUME” value [2] was 61.07 fL and the MONOCYTE [2] was 1%. For the same compound, the NEUTROPHIL [2] was 10.67%, the “NUCLEATED RED BLOOD CELLS” value [2] was 0 /100WBC and the “PLATELET COUNT” value [2] was 1135.67 x10E3/uL. For the same compound, the “ALANINE AMINOTRANSFERASE” value [2] was 59.67 u/L, the ALBUMIN [2] was 4.07 G/DL and the “ALKALINE PHOSPHATASE” value [2] was 404 u/L. For the same compound, the “ASPARTATE AMINOTRANSFERASE” value [2] was 88.67 u/L, the “BLOOD UREA NITROGEN” value [2] was 15.67 mg/dL and the “CARBON DIOXIDE” value [2] was 28 mmol/L. The CHLORIDE [2] was 99.67 MEQ/L, the CHOLESTEROL [2] was 47.67 mg/dL and the “CREATINE PHOSPHOKINASE” value [2] was 326.33 u/L. The CREATININE [2] was 0.2 mg/dL, the GLUCOSE [2] was 144 mg/dL and the “LACTATE DEHYDROGENASE” value [2] was 320.33 u/L. For the same compound, the LIPASE [2] was 9 u/L, the PHOSPHORUS [2] was 10.93 mg/dL and the POTASSIUM [2] was 6.55 MEQ/L. The SODIUM [2] was 142.4 MEQ/L, the “TOTAL BILIRUBIN” value [2] was 0.23 mg/dL and the “TOTAL PROTEIN” value [2] was 5.87 G/DL. The “URIC ACID” value [2] was 1.63 mg/dL, the “ABSOLUTE BASOPHIL” value [3] was 0 CELLS/uL and the “ABSOLUTE EOSINOPHIL” value [3] was 36.33 CELLS/uL. The “ABSOLUTE LYMPHOCYTE” value [3] was 8482.33 CELLS/uL, the “ABSOLUTE MONOCYTE” value [3] was 63 CELLS/uL and the “ABSOLUTE SEGMENTED NEUTROPHIL” value [3] was 1351.67 CELLS/uL. The BASOPHIL [3] was 0%, the EOSINOPHIL [3] was 0.33% and the “ERYTHROCYTE COUNT” value [3] was 6.02 x10E6/uL. The HEMATOCRIT [3] was 35.6%, the HEMOGLOBIN [3] was 13.97 G/DL and the “LEUKOCYTE COUNT” value [3] was 9.93 x10E3/uL. The LYMPHOCYTE [3] was 85.33%, the “MEAN CORPUSCULAR HEMOGLOBIN” value [3] was 23.23 pg and the “MEAN CORPUSCULAR HEMOGLOBIN CONCENTRATION” value [3] was 39.23 G/DL. For the same compound, the “MEAN CORPUSCULAR VOLUME” value [3] was 59.17 fL, the MONOCYTE [3] was 0.67% and the NEUTROPHIL [3] was 13.67%. For the same compound, the “NUCLEATED RED BLOOD CELLS” value [3] was 0 /100WBC, the “PLATELET COUNT” value [3] was 1115.33 x10E3/uL and the “ALANINE AMINOTRANSFERASE” value [3] was 54.67 u/L. The ALBUMIN [3] was 4.13 G/DL, the “ALKALINE PHOSPHATASE” value [3] was 331 u/L and the “ASPARTATE AMINOTRANSFERASE” value [3] was 125.67 u/L. The “BLOOD UREA NITROGEN” value [3] was 18 mg/dL, the “CARBON DIOXIDE” value [3] was 30 mmol/L and the CHLORIDE [3] was 99.67 MEQ/L. The CHOLESTEROL [3] was 51.67 mg/dL, the “CREATINE PHOSPHOKINASE” value [3] was 222.33 u/L and the CREATININE [3] was 0.15 mg/dL. For the same compound, the GLUCOSE [3] was 144.67 mg/dL, the “LACTATE DEHYDROGENASE” value [3] was 126.33 u/L and the LIPASE [3] was 10 u/L. The PHOSPHORUS [3] was 12 mg/dL, the POTASSIUM [3] was 6.6 MEQ/L and the SODIUM [3] was 143.8 MEQ/L. The “TOTAL BILIRUBIN” value [3] was 0.17 mg/dL, the “TOTAL PROTEIN” value [3] was 6.13 G/DL and the “URIC ACID” value [3] was 1.7 mg/dL. For the same compound, the “ABSOLUTE BASOPHIL” value [4] was 0 CELLS/uL, the “ABSOLUTE EOSINOPHIL” value [4] was 32.33 CELLS/uL and the “ABSOLUTE LYMPHOCYTE” value [4] was 11456 CELLS/uL. The “ABSOLUTE MONOCYTE” value [4] was 0 CELLS/uL, the “ABSOLUTE SEGMENTED NEUTROPHIL” value [4] was 1345 CELLS/uL and the BASOPHIL [4] was 0%. For the same compound, the EOSINOPHIL [4] was 0.33%, the “ERYTHROCYTE COUNT” value [4] was 5.94 x10E6/uL and the HEMATOCRIT [4] was 35.4%. The HEMOGLOBIN [4] was 14 G/DL, the “LEUKOCYTE COUNT” value [4] was 12.83 x10E3/uL and the LYMPHOCYTE [4] was 88.67%. For the same compound, the “MEAN CORPUSCULAR HEMOGLOBIN” value [4] was 23.57 pg, the “MEAN CORPUSCULAR HEMOGLOBIN CONCENTRATION” value [4] was 39.57 G/DL and the “MEAN CORPUSCULAR VOLUME” value [4] was 59.5 fL. The MONOCYTE [4] was 0%, the NEUTROPHIL [4] was 11% and the “NUCLEATED RED BLOOD CELLS” value [4] was 0 /100WBC. The “PLATELET COUNT” value [4] was 1399.33 x10E3/uL, the “ALANINE AMINOTRANSFERASE” value [4] was 62.67 u/L and the ALBUMIN [4] was 4.17 G/DL. The “ALKALINE PHOSPHATASE” value [4] was 326.67 u/L, the “ASPARTATE AMINOTRANSFERASE” value [4] was 68 u/L and the “BLOOD UREA NITROGEN” value [4] was 18.67 mg/dL. The “CARBON DIOXIDE” value [4] was 28.33 mmol/L, the CHLORIDE [4] was 99.33 MEQ/L and the CHOLESTEROL [4] was 45.33 mg/dL. The “CREATINE PHOSPHOKINASE” value [4] was 147.33 u/L, the CREATININE [4] was 0.18 mg/dL and the GLUCOSE [4] was 140.67 mg/dL. For the same compound, the “LACTATE DEHYDROGENASE” value [4] was 121 u/L, the LIPASE [4] was 10 u/L and the PHOSPHORUS [4] was 12.37 mg/dL. The POTASSIUM [4] was 6.84 MEQ/L, the SODIUM [4] was 145.03 MEQ/L and the “TOTAL BILIRUBIN” value [4] was 0.2 mg/dL. For the same compound, the “TOTAL PROTEIN” value [4] was 6.73 G/DL and the “URIC ACID” value [4] was 1.6 mg/dL.
